Reference: ChEMBL document CHEMBL4699466, “Isolation, reactivity, pharmacological activities and total synthesis of hispanolone and structurally related diterpenes from Labiatae plants” (Bioorg Med Chem Lett, 2020)

How the values were obtained:
RAW264.7 = test: Antiinflammatory activity against mouse RAW264.7 cells assessed as inhibition of LPS-induced nitrite accumulation at 10 uM preincubated for 30 mins followed by LPS-stimulation and measured after 24 hrs by Griess reagent based assay relative to control; assay type: functional; design: scale not given: the % may be the effect or the level left; conditions: time 24.5 hrs
[1] = Antagonist activity at PAF receptor in rabbit platelet membrane assessed as inhibition of [3H]-PAF binding to PAF receptor; assay type: cell membranes, Oryctolagus cuniculus, Cell membrane
[2] = Metal chelating activity of the compound assessed as Fe2+-compound complex formation at 0.500 mg/ml incubated for 10 mins in presence of ferrozine solution relative to control; conditions: dose 0.5 mg/ml
[3] = molecular target: 11-beta-hydroxysteroid dehydrogenase 1 (Homo sapiens) (UniProt P28845); test: Inhibition of human 11beta-HSD1 expressed in HEK-293 cells assessed as residual activity at […] using radiolabeled cortisone as substrate by scintillation counting; assay type: cell-based; conditions: HEK293
11-beta-hydroxysteroid dehydrogenase 1 (Homo sapiens), sequence (P28845 whole entry, looked up): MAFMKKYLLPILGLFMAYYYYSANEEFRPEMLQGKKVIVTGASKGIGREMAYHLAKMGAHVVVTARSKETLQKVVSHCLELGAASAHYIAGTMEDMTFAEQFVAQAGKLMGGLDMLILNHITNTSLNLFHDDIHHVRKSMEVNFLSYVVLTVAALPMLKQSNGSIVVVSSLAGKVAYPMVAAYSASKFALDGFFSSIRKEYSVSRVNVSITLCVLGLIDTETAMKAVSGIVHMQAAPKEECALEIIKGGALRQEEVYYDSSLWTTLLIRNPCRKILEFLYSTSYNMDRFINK

Mus musculus = species on record: Mus musculus; test: cells; conditions: Swiss-Taconi
Description: Antiinflammatory activity in Swiss-Taconi mouse assessed as reduction in TPA-induced ear edema

[4] = Metal chelating activity of the compound assessed as Fe2+-compound complex formation at 1 mg/ml incubated for 10 mins in presence of ferrozine solution relative to control
[5] = Metal chelating activity of the compound assessed as Fe2+-compound complex formation at 0.250 mg/ml incubated for 10 mins in presence of ferrozine solution relative to control; conditions: dose 0.25 mg/ml
Neutrophil [6] = test: Antiinflammatory activity in human neutrophils assessed as inhibition of elastase release at 10 uM relative to control; assay type: functional; design: scale not given: the % may be the effect or the level left
Neutrophil [7] = test: Antiinflammatory activity in human neutrophils assessed as inhibition of elastase release; assay type: functional, cell-based
Neutrophil [8] = test: Antiinflammatory activity in human neutrophils assessed as inhibition of fMLF/cytochalasin B-induced superoxide anion generation; assay type: functional, cell-based
Neutrophil [9] = test: Antiinflammatory activity in human neutrophils assessed as inhibition of fMLF/cytochalasin B-induced superoxide anion generation at 10 uM relative to control; assay type: functional; design: scale not given: the % may be the effect or the level left
Sulfotransferase 1E1 = molecular target: T1, Sulfotransferase 1E1 (Homo sapiens, UniProt P49888); test: Inhibition of estrogen sulfotransferase in human liver cytosol incubated for 30 mins in presence of [3H]-estradiol and adenosine -3'-phosphate 5'-phosphosulfate by liquid scintillation counting method; assay type: subcellular
T1 sequence (P49888 whole entry): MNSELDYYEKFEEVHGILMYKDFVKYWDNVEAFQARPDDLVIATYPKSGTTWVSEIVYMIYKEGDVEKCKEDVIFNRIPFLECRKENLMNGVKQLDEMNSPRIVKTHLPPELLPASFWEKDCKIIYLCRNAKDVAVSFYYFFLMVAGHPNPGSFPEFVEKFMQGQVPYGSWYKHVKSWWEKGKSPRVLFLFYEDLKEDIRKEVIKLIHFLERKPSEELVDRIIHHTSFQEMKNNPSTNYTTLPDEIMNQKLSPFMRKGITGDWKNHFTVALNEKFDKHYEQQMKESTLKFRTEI

Acetylcholinesterase = molecular target: T2, Acetylcholinesterase (Rattus norvegicus, UniProt P37136); test: Inhibition of Sprague-Dawley rat acetylcholinesterase using acetylthiocholine iodide as substrate measured at 30 secs for 5 mins by Ellman's method
T2 sequence (P37136 whole entry): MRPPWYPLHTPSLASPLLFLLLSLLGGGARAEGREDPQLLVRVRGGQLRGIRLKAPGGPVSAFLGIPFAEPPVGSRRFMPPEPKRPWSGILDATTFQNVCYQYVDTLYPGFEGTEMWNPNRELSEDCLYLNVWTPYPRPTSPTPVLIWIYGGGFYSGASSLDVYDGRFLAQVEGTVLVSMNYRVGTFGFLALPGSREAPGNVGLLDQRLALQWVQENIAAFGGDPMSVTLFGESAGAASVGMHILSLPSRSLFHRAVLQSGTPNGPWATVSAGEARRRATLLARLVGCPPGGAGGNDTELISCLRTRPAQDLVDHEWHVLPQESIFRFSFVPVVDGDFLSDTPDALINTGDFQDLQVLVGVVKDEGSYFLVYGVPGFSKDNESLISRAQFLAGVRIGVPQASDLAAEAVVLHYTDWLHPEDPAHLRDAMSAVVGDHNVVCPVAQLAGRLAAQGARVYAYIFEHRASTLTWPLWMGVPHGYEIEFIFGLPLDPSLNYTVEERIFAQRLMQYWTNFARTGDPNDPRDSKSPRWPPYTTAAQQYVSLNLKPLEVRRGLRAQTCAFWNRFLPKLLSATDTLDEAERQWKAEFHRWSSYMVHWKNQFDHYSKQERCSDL

## CCC1=C(Cc2ccoc2)C(=O)[C@@]2(C)CCCC(C)(C)[C@@H]2C1
RAW264.7
  Activity: 35.53%

## C[C@@H]1C(=O)C[C@H]2C(C)(C)CCC[C@]2(C)[C@@]12CC[C@]1(C=COC1)O2
[1]
  IC50: 4 µM

## C[C@@H]1C(=O)C[C@H]2C(C)(C)CCC[C@]2(C)[C@@]1(O)CCc1ccoc1
[2]
  Activity: 97%
[3]
  Activity: 20%
Mus musculus
  IC50: 1.05 µM
[4]
  Activity: 97.3%
[5]
  Activity: 96%

## CC1=C(CCc2ccoc2)[C@@]2(C)CCCC(C)(C)[C@@H]2CC1=O
Neutrophil [6]
  Activity: 70.06%
Neutrophil [7]
  IC50: 5.42 µM
Neutrophil [8]
  IC50: 8.48 µM
Neutrophil [9]
  Activity: 58.43%
Sulfotransferase 1E1
  IC50: 19.8 µM
Acetylcholinesterase
  IC50: 38.5 µM

## CC1=C(CCC2=CC(=O)OC2O)[C@@]2(C)CCCC(C)(C)[C@@H]2CC1=O (some centres undefined)
RAW264.7
  Activity: 84.1%
